According to PubChem BioAssay AID1963868 (Molecular Pharmacology Branch, DTP, NCI, 2024):

Tested on: KRAS PDC tumor spheroids (HUVEC+MSC), viability
Test: Anticancer human tumor 254851-301-R-J1-PDC patient-derived colon carcinoma cell line growth inhibition [KRAS2]
Settings: for IC50: curve of first compound; for viability, T/C: stronger effect = lower value
Source text: Multicellular complex tumor spheroid response to RAS pathway inhibitors in combination with a targeted agents in patient-derived cell lines with oncogenic KRAS variants from multiple cancer types
A high-throughput screen of multi-cell type tumor spheroids was designed to identify active combinations of targeted small molecules and KRAS pathway inhibitors. Complex spheroids include a stromal component modeled by human endothelial cells (HUVEC) and fibroblasts modeled by human mesenchymal stem cells (MSCs). The concentration ranges selected for each drug and investigational agent were based upon clinically achievable concentrations if the clinical Cmax of the agent was known.
Compounds. The drugs and investigational agents: BI-3406 (NSC825286), BAY-293 (NSC824723), batoprotafib (TNO155; NSC825523), sotorasib (AMG 510; NSC818433), MRTX1257 (NSC819558), elimusertib (BAY 1895344; NSC800525), molibresib (GSK525762; NSC774829), temuterkib (LY3214996; NSC803410), venetoclax (NSC766270), alisertib (NSC759677), olaparib (NSC753686), talazoparib (NSC767125), erdafitinib (NSC781556), ipatasertib (NSC767898), cabozantinib (NSC761068), nintedanib (NSC756659), abemaciclib (NSC768073), docetaxel (NSC628503), trametinib (NSC758246), and sapanisertib (NSC764658) were obtained from the National Cancer Institute (NCI) Developmental Therapeutics Program Chemical Repository. The FDA-approved anticancer drug set is available from the Developmental Therapeutics Program. […] The stock solutions were prepared in dimethyl sulfoxide (DMSO, Sigma-Aldrich, St. Louis, MO, cat. D2650) at 800-fold the tested concentration and stored at -70 degrees C prior to their use. All drugs and investigational agents were tested over a range starting from a high concentration at or near the clinical Cmax and decreasing in half-log increments. If the clinical Cmax for an agent had not been determined, the highest concentration tested was 10 microM.
Cell Culture. All cells were maintained in an incubator at 37 degrees C and 5% CO2 with 95% humidity. The PDC lines were cultured according to standard operating procedures established by the NCI PDMR (https://pdmr.cancer.gov/sops/default.htm). Briefly, all PDCs were thawed and cultured in Matrigel-coated flasks prepared with a working solution of 1X Ham's F-12 nutrient mix, without supplementation (Invitrogen, Waltham, MA, cat. 11765054), 100 U/mL penicillin-streptomycin (Invitrogen, cat. 15140122), and 2.5% Matrigel (Corning Inc., Corning, NY, cat. 354248) for the first three passages. All PDCs were cultured in complete DMEM/F-12 media containing advanced DMEM/F-12 (Invitrogen, cat. 12634028), 4.9% defined fetal bovine serum, heat inactivated (HyClone Laboratories Inc., Logan, UT, cat. SH30070.03HI), 389 ng/mL hydrocortisone (Sigma-Aldrich, cat. H4001), 9.7 ng/mL human EGF recombinant protein (Invitrogen, cat. PHG0313), 23.4 microg/mL adenine (Sigma-Aldrich, cat. A2786), 97.3 U/mL penicillin-streptomycin (Invitrogen, cat. 15140122), 1.9 mM L-glutamine (Invitrogen, cat. 25030081), and 9.7 microM Y-27632 dihydrochloride (Tocris Bioscience, Bristol, United Kingdom, cat. 1254). The PDCs were cultured in complete DMEM/F12 media without 9.7 microM Y-27632 dihydrochloride for at least two passages prior to the screen. The established cell line HOP-62 was cultured in RPMI 1640 medium, HEPES (Invitrogen, cat. 22400105) with 10% defined fetal bovine serum (HyClone Laboratories Inc., cat. SH30070.03) and 2 mM L-glutamine (Invitrogen, cat. 25030081). The pooled donor HUVEC were cultured in endothelial cell growth medium 2 (PromoCell, Heidelberg, Germany, cat. C-22011) and the hMSC were cultured in mesenchymal stem cell growth medium 2 (PromoCell, cat. C-28009). For all experiments, HUVEC and hMSC were used at passages </=5, while the malignant cell lines were used at passages </=15. […]

[1] = second compound 0.1 µM, first compound 0.0316 µM
[2] = second compound 0.1 µM, first compound 0.1 µM
[3] = second compound 0.316 µM, first compound 0.0316 µM
[4] = second compound 0.316 µM, first compound 0.1 µM
[5] = second compound 1 µM, first compound 0.0316 µM
[6] = second compound 1 µM, first compound 0.1 µM
[7] = second compound 3.16 µM, first compound 0.0316 µM
[8] = second compound 3.16 µM, first compound 0.1 µM
[9] = second compound 10 µM, first compound 0.0316 µM
[10] = second compound 10 µM, first compound 0.1 µM
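Also: spheroids exposed to compounds for seven days before readout.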
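For viability, T/C in this document: 100% = DMSO vehicle control luminescence of the spheroids.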

Structure (SMILES): CC1(C)CCC(CN2CCN(c3ccc(C(=O)NS(=O)(=O)c4ccc(NCC5CCOCC5)c([N+](=O)[O-])c4)c(Oc4cnc5[nH]ccc5c4)c3)CC2)=C(c2ccc(Cl)cc2)C1 + C=CC(=O)N1CCN(c2nc(=O)n(-c3c(C)ccnc3C(C)C)c3nc(-c4c(O)cccc4F)c(F)cc23)C(C)C1
- IC50 (second compound 0.1 µM): > 10 µM
- IC50 (second compound 0.316 µM): > 10 µM
- IC50 (second compound 1 µM): > 10 µM
- IC50 (second compound 3.16 µM): > 10 µM
- IC50 (second compound 10 µM): > 10 µM
- viability, T/C [1]: 106%
- viability, T/C [2]: 112%
- viability, T/C (second compound 0.1 µM, first compound 0.316 µM): 98.2%
- viability, T/C (second compound 0.1 µM, first compound 1 µM): 95.4%
- viability, T/C (second compound 0.1 µM, first compound 3.16 µM): 95.3%
- viability, T/C (second compound 0.1 µM, first compound 10 µM): 73.6%
- viability, T/C [3]: 106%
- viability, T/C [4]: 115%
- viability, T/C (second compound 0.316 µM, first compound 0.316 µM): 91.2%
- viability, T/C (second compound 0.316 µM, first compound 1 µM): 95.1%
- viability, T/C (second compound 0.316 µM, first compound 3.16 µM): 91.3%
- viability, T/C (second compound 0.316 µM, first compound 10 µM): 91.6%
- viability, T/C [5]: 114%
- viability, T/C [6]: 115%
- viability, T/C (second compound 1 µM, first compound 0.316 µM): 105%
- viability, T/C (second compound 1 µM, first compound 1 µM): 104%
- viability, T/C (second compound 1 µM, first compound 3.16 µM): 93.8%
- viability, T/C (second compound 1 µM, first compound 10 µM): 74.3%
- viability, T/C [7]: 102%
- viability, T/C [8]: 119%
- viability, T/C (second compound 3.16 µM, first compound 0.316 µM): 102%
- viability, T/C (second compound 3.16 µM, first compound 1 µM): 103%
- viability, T/C (second compound 3.16 µM, first compound 3.16 µM): 92.7%
- viability, T/C (second compound 3.16 µM, first compound 10 µM): 84.9%
- viability, T/C [9]: 109%
- viability, T/C [10]: 109%
- viability, T/C (second compound 10 µM, first compound 0.316 µM): 97.8%
- viability, T/C (second compound 10 µM, first compound 1 µM): 107%
- viability, T/C (second compound 10 µM, first compound 3.16 µM): 93.8%
- viability, T/C (second compound 10 µM, first compound 10 µM): 83.7%

Structure (SMILES): Cn1ncnc1[C@H]1c2n[nH]c(=O)c3cc(F)cc(c23)N[C@@H]1c1ccc(F)cc1 + C=CC(=O)N1CCN(c2nc(=O)n(-c3c(C)ccnc3C(C)C)c3nc(-c4c(O)cccc4F)c(F)cc23)C(C)C1
- IC50 (second compound 0.1 µM): > 0.1 µM
- IC50 (second compound 0.316 µM): > 0.1 µM
- IC50 (second compound 1 µM): > 0.1 µM
- IC50 (second compound 3.16 µM): > 0.1 µM
- IC50 (second compound 10 µM): > 0.1 µM
- viability, T/C (second compound 0.1 µM, first compound 0.000316 µM): 101%
- viability, T/C (second compound 0.1 µM, first compound 0.001 µM): 99.8%
- viability, T/C (second compound 0.1 µM, first compound 0.00316 µM): 99.2%
- viability, T/C (second compound 0.1 µM, first compound 0.01 µM): 99.3%
- viability, T/C [1]: 106%
- viability, T/C [2]: 98.8%
- viability, T/C (second compound 0.316 µM, first compound 0.000316 µM): 97.5%
- viability, T/C (second compound 0.316 µM, first compound 0.001 µM): 97.9%
- viability, T/C (second compound 0.316 µM, first compound 0.00316 µM): 96%
- viability, T/C (second compound 0.316 µM, first compound 0.01 µM): 94.5%
- viability, T/C [3]: 88.5%
- viability, T/C [4]: 92.4%
- viability, T/C (second compound 1 µM, first compound 0.000316 µM): 90%
- viability, T/C (second compound 1 µM, first compound 0.001 µM): 93.9%
- viability, T/C (second compound 1 µM, first compound 0.00316 µM): 98%
- viability, T/C (second compound 1 µM, first compound 0.01 µM): 94.7%
- viability, T/C [5]: 97.7%
- viability, T/C [6]: 86.5%
- viability, T/C (second compound 3.16 µM, first compound 0.000316 µM): 97%
- viability, T/C (second compound 3.16 µM, first compound 0.001 µM): 103%
- viability, T/C (second compound 3.16 µM, first compound 0.00316 µM): 94%
- viability, T/C (second compound 3.16 µM, first compound 0.01 µM): 94.3%
- viability, T/C [7]: 96.3%
- viability, T/C [8]: 90.4%
- viability, T/C (second compound 10 µM, first compound 0.000316 µM): 108%
- viability, T/C (second compound 10 µM, first compound 0.001 µM): 99.4%
- viability, T/C (second compound 10 µM, first compound 0.00316 µM): 102%
- viability, T/C (second compound 10 µM, first compound 0.01 µM): 91.7%
- viability, T/C [9]: 87.4%
- viability, T/C [10]: 96.8%
